Measured values as given in patent US6737383B1, “Herbicidal oxadiazolidines” (priority 1999, dated 2004).

How the values were obtained:
blackgrass = experiment: Test B pre/postemergence blackgrass; type: in vivo, Alopecurus myosuroides
In short: (§1)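 Test chemicals in a non-phytotoxic solvent mixture with surfactant were sprayed preemergence onto planted seeds and postemergence onto plants 2 to 18 cm tall (1- to 4-leaf stage). After twelve to sixteen days in a greenhouse, injury was visually rated against untreated controls from 0 (no effect) to 10 (complete control).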

surinam grass = experiment: Test B pre/postemergence surinam grass; type: in vivo, Brachiaria decumbens
In short: as §1

cocklebur = experiment: Test B pre/postemergence cocklebur; type: in vivo, Xanthium strumarium
In short: as §1

corn = experiment: Test B pre/postemergence corn; type: in vivo, Zea mays
In short: as §1

crabgrass = experiment: Test B pre/postemergence crabgrass; type: in vivo, Digitaria sanguinalis
In short: as §1

giant foxtail = experiment: Test B pre/postemergence giant foxtail; type: in vivo, Setaria faberii
In short: as §1

pigweed = experiment: Test B pre/postemergence pigweed; type: in vivo, Amaranthus retroflexus
In short: as §1

rape = experiment: Test B pre/postemergence rape; type: in vivo, Brassica napus
In short: as §1

soybean = experiment: Test B pre/postemergence soybean; type: in vivo, Glycine max
In short: as §1

sugar beet = experiment: Test B pre/postemergence sugar beet; type: in vivo, Beta vulgaris
In short: as §1

wheat = experiment: Test B pre/postemergence wheat; type: in vivo, Triticum aestivum
In short: as §1

purple nutsedge = experiment: Test B pre/postemergence purple nutsedge; type: in vivo, Cyperus rotundus
In short: as §1

rice = experiment: Test B flood test rice; type: in vivo, Oryza sativa
In short: (§2)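 Flood test on plants grown to the 2-leaf stage; treated plants kept in greenhouse twelve to sixteen days, then visually rated against controls on a 0 (no effect) to 10 (complete control) scale.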

smallflower flatsedge = experiment: Test B flood test smallflower flatsedge; type: in vivo, Cyperus difformis
In short: as §2

duck salad = experiment: Test B flood test duck salad; type: in vivo, Heteranthera limosa
In short: as §2

bamyardgrass = experiment: Test B flood test barnyardgrass; type: in vivo, Echinochloa crus-galli
In short: as §2

[1] = Preemergence, Rate 62 g/ha, scale of 0 to 10 where 0 is no effect and 10 is complete control
[2] = Preemergence, Rate 250 g/ha, scale of 0 to 10 where 0 is no effect and 10 is complete control
[3] = Preemergence, Rate 500 g/ha, scale of 0 to 10 where 0 is no effect and 10 is complete control
[4] = Rate 62 g/ha, Postemergence, scale of 0 to 10 where 0 is no effect and 10 is complete control
[5] = Rate 125 g/ha, Postemergence, scale 0 to 10
[6] = Rate 125 g/ha, Preemergence, scale of 0 to 10 where 0 is no effect and 10 is complete control
[7] = Rate 500 g/ha, Postemergence, scale 0 to 10, 0 no effect, 10 complete control
[8] = Rate 62 g/ha, headed Pre-emergence (flood test species), scale 0 to 10 (0 no effect, 10 complete control)
[9] = Rate 125 g/ha, Pre-emergence, flood test species, scale 0 to 10 where 0 is no effect and 10 is complete control
[10] = Rate 250 g/ha, Pre-emergence, flood-test species, scale 0 to 10, 0 is no effect, 10 is complete control
[11] = Rate 500 g/ha, Pre-emergence, flood test species, scale 0 to 10 (0 no effect, 10 complete control)

CC(C)N(C(=O)n1oc(=O)n(-c2cccnc2)c1=O)c1ccc(F)cc1 [Compound 234]
Blackgrass plant response rating (blackgrass; [1]): 0
Blackgrass plant response rating (blackgrass; [2]): 0
Plant response rating, Blackgrass (blackgrass; [3]): 0
Blackgrass plant response rating (blackgrass; [4]): 0
Blackgrass plant response rating (blackgrass; [5]): 0
Blackgrass plant response rating (blackgrass; [6]): 0
Plant response rating (0 to 10; 0 is no effect, 10 is complete control), Blackgrass (blackgrass; Rate 250 g/ha, Postemergence): 0
Blackgrass plant response rating (blackgrass; [7]): 0
B. signalgrass plant response rating (surinam grass; [1]): 0
B. signalgrass plant response rating (surinam grass; Preemergence, Rate 250 g/ha, scale 0 to 10, 0 is no effect, 10 is complete control): 0
Plant response rating, B. signalgrass (surinam grass; [3]): 0
B. signalgrass plant response rating (surinam grass; [4]): 0
B. signalgrass plant response rating (surinam grass; Rate 125 g/ha, Postemergence, scale 0 (no effect) to 10 (complete control)): 0
B. signalgrass plant response rating (surinam grass; [6]): 0
Plant response rating (0 to 10; 0 is no effect, 10 is complete control), B. signalgrass (surinam grass; Rate 250 g/ha, Postemergence): 0
B. signalgrass plant response rating (surinam grass; [7]): 0
Cocklebur plant response rating (cocklebur; [1]): 0
Cocklebur plant response rating (cocklebur; [2]): 0
Plant response rating, Cocklebur (cocklebur; [3]): 0
Cocklebur plant response rating (cocklebur; [4]): 0
Cocklebur plant response rating (cocklebur; [5]): 0
Cocklebur plant response rating (cocklebur; [6]): 0
Plant response rating (0 to 10; 0 is no effect, 10 is complete control), Cocklebur (cocklebur; Rate 250 g/ha, Postemergence): 0
Cocklebur plant response rating (cocklebur; [7]): 3
Corn plant response rating (corn; [1]): 0
Corn plant response rating (corn; [2]): 0
Plant response rating, Corn (corn; [3]): 0
Corn plant response rating (corn; [4]): 0
Corn plant response rating (corn; [5]): 0
Corn plant response rating (corn; [6]): 0
Plant response rating (0 to 10; 0 is no effect, 10 is complete control), Corn (corn; Rate 250 g/ha, Postemergence): 0
Corn plant response rating (corn; [7]): 0
Crabgrass plant response rating (crabgrass; [1]): 0
Crabgrass plant response rating (crabgrass; [2]): 0
Plant response rating, Crabgrass (crabgrass; [3]): 0
Crabgrass plant response rating (crabgrass; [4]): 0
Crabgrass plant response rating (crabgrass; [5]): 0
Crabgrass plant response rating (crabgrass; [6]): 0
Plant response rating (0 to 10; 0 is no effect, 10 is complete control), Crabgrass (crabgrass; Rate 250 g/ha, Postemergence): 0
Crabgrass plant response rating (crabgrass; [7]): 0
Giant foxtail plant response rating (giant foxtail; [1]): 0
Giant foxtail plant response rating (giant foxtail; [2]): 0
Plant response rating, Giant foxtail (giant foxtail; [3]): 0
Giant foxtail plant response rating (giant foxtail; [4]): 0
Giant foxtail plant response rating (giant foxtail; [5]): 0
Giant foxtail plant response rating (giant foxtail; [6]): 0
Plant response rating (0 to 10; 0 is no effect, 10 is complete control), Giant foxtail (giant foxtail; Rate 250 g/ha, Postemergence): 0
Giant foxtail plant response rating (giant foxtail; [7]): 0
Redroot pigweed plant response rating (pigweed; [1]): 0
Redroot pigweed plant response rating (pigweed; [2]): 0
Plant response rating, Redroot pigweed (pigweed; [3]): 0
Redroot pigweed plant response rating (pigweed; [4]): 0
Redroot pigweed plant response rating (pigweed; [5]): 0
Redroot pigweed plant response rating (pigweed; [6]): 0
Plant response rating (0 to 10; 0 is no effect, 10 is complete control), Redroot pigweed (pigweed; Rate 250 g/ha, Postemergence): 0
Redroot pigweed plant response rating (pigweed; [7]): 0
Rape plant response rating (rape; [1]): 0
Rape plant response rating (rape; [2]): 0
Plant response rating, Rape (rape; [3]): 0
Rape plant response rating (rape; [4]): 0
Rape plant response rating (rape; [5]): 0
Rape plant response rating (rape; [6]): 0
Plant response rating (0 to 10; 0 is no effect, 10 is complete control), Rape (rape; Rate 250 g/ha, Postemergence): 0
Rape plant response rating (rape; [7]): 0
Soybean plant response rating (soybean; [1]): 0
Soybean plant response rating (soybean; [2]): 0
Plant response rating, Soybean (soybean; [3]): 0
Soybean plant response rating (soybean; [4]): 0
Soybean plant response rating (soybean; [5]): 0
Soybean plant response rating (soybean; [6]): 0
Plant response rating (0 to 10; 0 is no effect, 10 is complete control), Soybean (soybean; Rate 250 g/ha, Postemergence): 0
Soybean plant response rating (soybean; [7]): 1
Sugarbeets plant response rating (sugar beet; [1]): 0
Sugarbeets plant response rating (sugar beet; [2]): 0
Plant response rating, Sugarbeets (sugar beet; [3]): 0
Sugarbeets plant response rating (sugar beet; [4]): 0
Sugarbeets plant response rating (sugar beet; [5]): 0
Sugarbeets plant response rating (sugar beet; [6]): 0
Plant response rating (0 to 10; 0 is no effect, 10 is complete control), Sugarbeets (sugar beet; Rate 250 g/ha, Postemergence): 0
Sugarbeets plant response rating (sugar beet; [7]): 0
Wheat plant response rating (wheat; [1]): 0
Wheat plant response rating (wheat; [2]): 0
Plant response rating, Wheat (wheat; [3]): 0
Wheat plant response rating (wheat; [4]): 0
Wheat plant response rating (wheat; [5]): 0
Wheat plant response rating (wheat; [6]): 0
Plant response rating (0 to 10; 0 is no effect, 10 is complete control), Wheat (wheat; Rate 250 g/ha, Postemergence): 0
Wheat plant response rating (wheat; [7]): 0
Plant response rating, Nutsedge (purple nutsedge; [3]): 0
Nutsedge plant response rating (purple nutsedge; [4]): 0
Nutsedge plant response rating (purple nutsedge; [5]): 0
Plant response rating (0 to 10; 0 is no effect, 10 is complete control), Nutsedge (purple nutsedge; Rate 250 g/ha, Postemergence): 0
Nutsedge plant response rating (purple nutsedge; [7]): 0
Rice plant response rating (rice; [8]): 0
Rice plant response rating (rice; [9]): 0
Rice plant response rating (rice; [10]): 0
Rice plant response rating (rice; [11]): 0
S. Flatsedge plant response rating (smallflower flatsedge; [8]): 0
S. Flatsedge plant response rating (smallflower flatsedge; [9]): 0
S. Flatsedge plant response rating (smallflower flatsedge; [10]): 0
S. Flatsedge plant response rating (smallflower flatsedge; [11]): 0
Ducksalad plant response rating (duck salad; [8]): 0
Ducksalad plant response rating (duck salad; [9]): 0
Ducksalad plant response rating (duck salad; [10]): 0
Ducksalad plant response rating (duck salad; [11]): 0
Barnyardgrass plant response rating (bamyardgrass; [8]): 0
Barnyardgrass plant response rating (bamyardgrass; [9]): 0
Barnyardgrass plant response rating (bamyardgrass; [10]): 0
Barnyardgrass plant response rating (bamyardgrass; [11]): 0
